This note sets out measurements from PubChem BioAssay (NCI).

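Following 48 hours of exposure in 96-well plates, responses at five concentrations were used to interpolate endpoints linearly. Definition used: TGI = concentration required for complete inhibition of growth.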 Where a SMILES comes first, the peptide text is derived from it. The star is where a group is joined. Pentanoyl = CCCCC(=O)*; Boc = CC(C)(C)OC(=O)*

What all share (assay): inhibition of tumour cell growth, NCI panel, 48 h
Assay [1] concerns OVCAR-4 ovarian.
The subject of assay [2] is BT-549 breast.
Assay [3] concerns K-562 leukemia.
Assay [4] concerns 786-0 renal.
Assay [5] has as its system UACC-257 melanoma.
For assay [6], the system named is COLO 205 colon.
Assay [7] concerns SN12C renal.
Assay [8] relates to HOP-62 NSCLC.
Assay [9] has as its system A498 renal.
Assay [10] has as its system RXF 393 renal.
The test system of assay [11] is HL-60(TB) leukemia.
Assay [12] relates to HS 578T breast.
In assay [13] the test system is CCRF-CEM leukemia.
Assay [14] relates to IGROV1 ovarian.
In assay [15] the test system is A549 NSCLC.
For assay [16], the system named is SF-295 CNS.
Assay [17] relates to DU-145 prostate.
In assay [18] the test system is SK-MEL-28 melanoma.
Assay [19] concerns U251 CNS.

On to `O=C1Nc2ccccc2S/C1=C\c1cccc(C(F)(F)F)c1`, for which the TGI in assay [1], in assay [2], in assay [3], in assay [4], in assay [5] and in assay [6] was over 100 µM throughout. Also, the TGI in assay [7], in assay [8], in [9], in assay [10], in [11] and in assay [12] was over 100 µM throughout. Also, the TGI in assay [13], in assay [14], in [15], in assay [16], in assay [17] and in assay [18] was over 100 µM in each case. This compound also registered a TGI in [19] of over 100 µM.

As for `CSCCC(N)P(C)(=O)O` (stereo unspecified), the TGI in assay [1], in [2], in assay [3], in assay [4], in assay [5] and in assay [6] was over 100 µM each time. Also, the TGI in [7], in [8], in assay [9], in assay [10], in assay [11] and in assay [12] was over 100 µM in each case. Besides, the TGI in [13], in assay [14], in assay [15], in assay [16], in assay [17] and in [18] was over 100 µM in each case. For the same compound, the TGI in assay [19] is over 100 µM.

For the compound `O=c1ssc(Cl)c1Nc1c(Cl)ssc1=O`, the TGI in assay [1] came out at 35.8 µM; in assay [2], 33.1 µM; in [3], 15.3 µM; in assay [4] it was 38.2 µM; in assay [5] it was 33.4 µM; in assay [6], 31.5 µM. For the same compound, the TGI in assay [7] was 37.9 µM; in [8], 42.4 µM; in [9], 31.7 µM; in assay [10] it was 28.3 µM; in assay [11], 35.1 µM; in assay [12], over 100 µM. The TGI was over 23.5 µM in [13]; 34.2 µM in assay [14]; 49.8 µM in [15]; over 100 µM in [16]; 32.3 µM in assay [17]; over 61.8 µM in assay [18]. This compound had a TGI in assay [19] of 36.8 µM.

Consider `O=C1C(c2c(O)[nH]c3ccc(S(=O)(=O)O)cc23)=Nc2ccc(Br)cc21`, for which the TGI in [1], in [2], in [3], in assay [4], in assay [5] and in assay [6] was over 100 µM in each case. Also, the TGI in assay [7], in assay [8], in [9], in [10], in [11] and in assay [12] was over 100 µM each time. Also, the TGI in assay [13], in [14], in assay [15], in [16], in [17] and in assay [18] was over 100 µM throughout. In [19], this compound registered a TGI of over 100 µM.

For `CCOC(=O)C1=C(C)OC(=O)[C@@]2(OC)C=C(Cl)[C@@]12C`, the TGI in assay [1], in assay [2], in [3], in assay [4], in [5] and in assay [6] was over 100 µM in each case. Besides, the TGI in [7] is over 100 µM; in assay [8] it was over 100 µM; in assay [9], over 100 µM; in [10], over 100 µM; in assay [11], 91 µM; in assay [12] it was over 100 µM. For the same compound, the TGI in assay [13], in assay [14], in assay [15], in assay [16], in [17] and in assay [18] was over 100 µM each time. Further, the TGI in assay [19] was over 100 µM.

Turning to `CCCCC(=O)Oc1ccc(CC(NC(=O)OC(C)(C)C)C(=O)NC(C)C(=O)NC(Cc2ccccc2)C(=O)NCC(N)=O)cc1` (stereo unspecified) (Boc-Y(Pentanoyl)AFG-NH2; configuration not given here), the TGI in assay [1] was over 100 µM; in assay [2], 55.7 µM; in assay [3], over 100 µM; in [4], over 100 µM; in assay [5], 71.4 µM; in assay [6], 37.6 µM. The TGI is over 100 µM in assay [7]; 50 µM in [8]; over 100 µM in assay [9]; over 100 µM in assay [10]; 61 µM in assay [11]; over 100 µM in [12]. For the same compound, the TGI in [13] was over 100 µM; in [14] it was 53.7 µM; in [15] it was over 100 µM; in assay [16], over 100 µM; in assay [17], over 100 µM; in assay [18] it was 64.1 µM. The compound further yielded a TGI in [19] of 40.6 µM.

For `Oc1ccc2oc3c(O)c4ccccc4cc3c2c1`, the TGI in assay [1] is 13 µM; in [2], 15.3 µM; in [3], 1.3 µM; in assay [4] it was 20 µM; in assay [5], over 100 µM; in assay [6] it was 28 µM. Moreover, the TGI was 8.32 µM in [7]; over 100 µM in assay [8]; 9.33 µM in assay [9]; 16.9 µM in assay [10]; 13.5 µM in assay [11]; over 100 µM in [12]. Moreover, the TGI was 8.47 µM in assay [13]; 4.21 µM in assay [14]; over 100 µM in assay [15]; 15.6 µM in assay [17]; over 100 µM in assay [18]; 21.1 µM in assay [19].

Turning to `O=C1c2ccccc2C(=O)c2c1ccc1nc3c(nc21)-c1c2ccccc2cc2cccc-3c12`, the TGI in [1], in assay [2], in assay [3], in assay [4], in assay [5] and in assay [6] was over 100 µM each time. Further, the TGI in assay [7] is over 100 µM; in assay [8] it was over 91.6 µM; in assay [9], over 82.5 µM; in assay [10], over 100 µM; in assay [11], over 100 µM; in assay [12] it was over 52.4 µM. In addition, the TGI was over 100 µM in [13]; over 57.4 µM in assay [14]; over 100 µM in assay [15]; over 100 µM in assay [16]; over 81.7 µM in assay [17]; over 100 µM in [18]. Besides, the TGI in assay [19] was over 100 µM.

Take `COC(=O)Nc1nc2ccc(S(=O)(=O)n3nnc4ccccc43)cc2[nH]1`: the TGI in assay [1] is over 100 µM; in assay [2], 48.1 µM; in assay [3] it was over 100 µM; in assay [4], over 100 µM; in assay [5], 43.9 µM; in [6], over 100 µM. Besides, the TGI in assay [7] was over 100 µM; in assay [8], 51.2 µM; in [9], over 100 µM; in assay [10] it was 36.1 µM; in assay [11] it was over 100 µM; in [12] it was over 100 µM. In addition, the TGI is over 100 µM in [13]; over 100 µM in assay [14]; over 100 µM in [15]; 90.7 µM in assay [16]; over 100 µM in [17]; over 100 µM in [18]. Besides, the TGI in assay [19] was over 100 µM.

On to `Cc1ccc(S(=O)(=O)/N=C(\N)N(C)N=O)cc1`, for which the TGI in assay [1], in assay [2], in assay [3], in [4], in assay [5] and in assay [6] was over 100 µM in each case. The TGI in assay [7], in [8], in assay [9], in assay [10], in assay [11] and in assay [12] was over 100 µM throughout. For the same compound, the TGI in assay [13], in assay [14], in [15], in [16], in assay [17] and in [18] was over 100 µM throughout. In addition, the TGI in [19] is over 100 µM.

`O=C(O)c1ccc([N+]2=Cn3c(nc4ccccc43)C2)cc1`: the TGI in assay [1], in assay [2], in [3], in assay [4], in assay [5] and in assay [6] was over 100 µM each time. In addition, the TGI in assay [7], in assay [8], in assay [9], in assay [10], in [11] and in [12] was over 100 µM each time. The TGI in [13], in assay [14], in assay [15], in [16], in [17] and in assay [18] was over 100 µM throughout. The compound further showed a TGI in assay [19] of over 100 µM.

As for `C=CCn1c(C23CC4CC(CC(C4)C2)C3)n[nH]c1=S`, the TGI in assay [1], in assay [2], in [3], in [4], in [5] and in [6] was over 100 µM throughout. The TGI in assay [7] is over 100 µM; in [8], over 100 µM; in assay [9], over 100 µM; in assay [10], over 100 µM; in assay [11] it was 53.9 µM; in assay [12] it was over 100 µM. Besides, the TGI in [13], in [14], in assay [16], in assay [17], in assay [18] and in assay [19] was over 100 µM each time.

With `O=C(O)C1=C(C(=O)O)N(c2ccncc2)C(c2ccco2)=CC1c1ccccc1[N+](=O)[O-]` (stereo unspecified), the TGI in [1] is 25.9 µM; in [2], 30 µM; in assay [3], over 100 µM; in assay [4] it was 4.06 µM; in [5] it was 5.28 µM; in [6], 31.1 µM. Moreover, the TGI in assay [7] came out at 29.1 µM; in assay [8], 33.7 µM; in assay [9] it was 28.1 µM; in assay [10] it was 21.3 µM; in assay [11] it was 7.85 µM; in [12] it was 62 µM. Further, the TGI was over 23.8 µM in assay [13]; 4.84 µM in [14]; 35.9 µM in assay [15]; 25.5 µM in assay [16]; 24.9 µM in assay [17]; over 54.8 µM in assay [18]. Besides, in assay [19], the TGI amounted to 28 µM.

Take `CCOC(=O)CC1(O)CCCCC1(Sc1ccc(C)cc1)Sc1ccc(C)cc1` (stereo unspecified): the TGI in assay [1], in [2], in assay [3], in assay [4], in assay [5] and in [6] was over 100 µM in each case. The TGI in assay [7] was over 100 µM; in assay [8] it was over 100 µM; in [9], over 100 µM; in [10] it was over 100 µM; in [11], over 100 µM; in assay [12], 84.4 µM. The TGI in assay [13], in assay [15], in assay [16], in [17], in assay [18] and in assay [19] was over 100 µM in each case.

On to `O=C(c1ccc2ccccc2c1)N(Cc1cccnc1)C(=S)N(Cc1cccnc1)C(=O)c1ccc2ccccc2c1`, for which the TGI in assay [1] was 45.3 µM; in assay [2], 38.6 µM; in assay [3], over 100 µM; in [4] it was 73.4 µM; in assay [5], 48.7 µM; in assay [6], 75.1 µM. Moreover, the TGI in [7] is over 100 µM; in [8] it was 55.2 µM; in assay [9], over 100 µM; in assay [10], 43.9 µM; in assay [11], over 100 µM; in assay [12] it was over 100 µM. The TGI in assay [13] is over 100 µM; in [15] it was over 100 µM; in [16], over 100 µM; in [17] it was 69.5 µM; in assay [18], over 100 µM; in assay [19], 38.6 µM.
